These results are taken from patent publication US9771381B2, “Derivatives of 1-amino-2-cyclobutylethylboronic acid” (Millennium Pharmaceuticals, Inc., priority 2008, dated 2017).

The assay addresses T1, human 20S proteasome (Homo sapiens, UniProt P28074).
T1 construct: purchased Boston Biochem
Kind of assay: 20S Proteasome Assay. Type of assay: biochemical. The conditions noted are these: Ac-WLA-AMC substrate 15 μM, human PA28 activator 12 nM, human 20S proteasome 0.25 nM, 37° C., pH7.4.

Molecules are shown by their SMILES.

Consider `O=C(N[C@@H](Cc1ccccc1)C(=O)N[C@@H](CC1CCC1)B(O)O)c1ccc(O)c(CN2CCOCC2)c1` [Compound 3, {(1R)-2-cyclobutyl-1-[((2S)-2-{[4-hydroxy-3-(morpholin-4-ylmethyl)benzoyl]amino}-3-phenylpropanoyl)amino]ethyl}boronic acid], for which the IC50 (commonly the concentration at which inhibition is half-maximal) is less than 50 nM.
Next, `O=C(N[C@@H](CC1CCC1)B(O)O)[C@H](Cc1ccccc1)NC(=O)[C@H](CCc1ccccc1)NS(=O)(=O)Cc1ccccc1` [Compound 4, [(1R,4S,7S)-4-benzyl-1-(cyclobutylmethyl)-9,9-dioxido-3,6-dioxo-10-phenyl-7-(2-phenylethyl)-9-thia-2,5,8-triazadec-1-yl]boronic acid]: less than 50 nM; `CC1(C)[C@@H]2C[C@H]3OB([C@H](CC4CCC4)NC(=O)[C@H](Cc4ccccc4)NC(=O)c4cc(Cl)ccc4Cl)O[C@@]3(C)[C@H]1C2` [Compound 5, N-[(1S)-1-benzyl-2-({(1R)-2-cyclobutyl-1-[(3aS,4S,6S,7aR)-3a,5,5-trimethylhexahydro-4,6-methano-1,3,2-benzodioxaborol-2-yl]ethyl}amino)-2-oxoethyl]-2,5-dichlorobenzamide]: less than 50 nM; `O=C(N[C@@H](Cc1ccccc1)C(=O)N[C@@H](CC1CCC1)B(O)O)c1cccc(Oc2ccccc2)c1` [Compound 7, [(1R)-2-cyclobutyl-1-({(2S)-2-[(3-phenoxybenzoyl)amino]-3-phenylpropanoyl}amino)ethyl]boronic acid]: less than 50 nM.
Next, `CN1CCOc2cc(S(=O)(=O)N[C@@H](Cc3ccccc3)C(=O)N[C@@H](CC3CCC3)B3O[C@@H]4C[C@@H]5C[C@@H](C5(C)C)[C@]4(C)O3)ccc21` [Compound 8, (2S)-N-{(1R)-2-cyclobutyl-1-[(3aS,4S,6S,7aR)-3a,5,5-trimethylhexahydro-4,6-methano-1,3,2-benzodioxaborol-2-yl]ethyl}-2-{[(4-methyl-3,4-dihydro-2H-1,4-benzoxazin-7-yl)sulfonyl]amino}-3-phenylpropanamide]: less than 50 nM; `CC1(C)[C@@H]2C[C@H]3OB([C@H](CC4CCC4)NC(=O)[C@H](Cc4ccccc4)NC(=O)c4cccnc4Oc4ccccc4)O[C@@]3(C)[C@H]1C2` [Compound 9, N-[(1S)-1-benzyl-2-({(1R)-2-cyclobutyl-1-[(3aS,4S,6S,7aR)-3a,5,5-trimethylhexahydro-4,6-methano-1,3,2-benzodioxaborol-2-yl]ethyl}amino)-2-oxoethyl]-2-phenoxynicotinamide]: less than 50 nM; `CC1(C)[C@@H]2C[C@H]3OB([C@H](CC4CCC4)NC(=O)[C@H](Cc4ccccc4)NC(=O)c4ccc(O)c(CN5CCOCC5)c4)O[C@@]3(C)[C@H]1C2` [Compound 10, N-[(1S)-1-benzyl-2-({(1R)-2-cyclobutyl-1-[(3aS,4S,6S,7aR)-3a,5,5-trimethylhexahydro-4,6-methano-1,3,2-benzodioxaborol-2-yl]ethyl}amino)-2-oxoethyl]-4-hydroxy-3-(morpholin-4-ylmethyl)benzamide]: 50 to 150 nM.
The value for `O=C(N[C@@H](CC1CCC1)B(O)O)[C@H](Cc1ccccc1)NS(=O)(=O)c1ccc(Oc2ccccc2)nc1` [Compound 11, {(1R)-2-cyclobutyl-1-[((2S)-2-{[(6-phenoxypyridin-3-yl)sulfonyl]amino}-3-phenylpropanoyl)amino]ethyl}boronic acid] was less than 50 nM.
In the case of `CC1(C)[C@@H]2C[C@H]3OB([C@H](CC4CCC4)NC(=O)[C@H](Cc4ccccc4)NS(=O)(=O)c4ccc5ccccc5c4)O[C@@]3(C)[C@H]1C2` [Compound 12, (2S)-N-{(1R)-2-cyclobutyl-1-[(3aS,4S,6S,7aR)-3a,5,5-trimethylhexahydro-4,6-methano-1,3,2-benzodioxaborol-2-yl]ethyl}-2-[(2-naphthylsulfonyl)amino]-3-phenylpropanamide], the IC50 was less than 50 nM.
Next, `CC1(C)[C@@H]2C[C@H]3OB([C@H](CC4CCC4)NC(=O)[C@H](Cc4ccccc4)NC(=O)c4cccc(Oc5ccccc5)c4)O[C@@]3(C)[C@H]1C2` [Compound 13]: less than 50 nM.
